Data reported in ChEMBL document CHEMBL3872227, “Discovery of novel xanthine compounds targeting DPP-IV and GPR119 as anti-diabetic agents” (Eur J Med Chem, 2016).

What was measured:
[1] = biological target: Dipeptidyl peptidase 8/9 (Homo sapiens) (UniProt Q6V1X1+Q86TI2); test: Inhibition of full length recombinant human DPP-8/9 expressed in HEK293 cells at 10 uM incubated for 1 hr; format: cell-based
[2] = biological target: T1, Glucose-dependent insulinotropic receptor (Homo sapiens, UniProt Q8TDV5); test: Agonist activity at CREB-LBD and GAL4-DBD fused human GPR119 expressed in HEK293 cells by luciferase reporter gene assay; format: functional, cell-based
T1 sequence (Q8TDV5 whole entry): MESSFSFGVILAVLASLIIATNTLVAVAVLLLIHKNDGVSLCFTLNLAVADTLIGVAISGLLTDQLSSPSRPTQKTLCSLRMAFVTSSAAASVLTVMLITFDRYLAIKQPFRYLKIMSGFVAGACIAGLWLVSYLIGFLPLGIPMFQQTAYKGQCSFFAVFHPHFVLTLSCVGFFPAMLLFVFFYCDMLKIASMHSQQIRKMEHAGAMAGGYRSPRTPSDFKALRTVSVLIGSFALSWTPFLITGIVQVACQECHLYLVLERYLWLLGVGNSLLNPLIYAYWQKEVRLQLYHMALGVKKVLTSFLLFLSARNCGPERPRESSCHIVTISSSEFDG

[3] = Metabolic stability in mouse liver microsomes at 1 umol/L after 30 mins by LC/MS/MS method; format: ADME; details: 0.5 h, 1 µM
[4] = biological target: T2, Glucose-dependent insulinotropic receptor (Homo sapiens) (UniProt Q8TDV5); test: Agonist activity at CREB-LBD and GAL4-DBD fused human GPR119 expressed in HEK293 cells at 1 uM by luciferase reporter gene assay relative to AR231453; format: functional, cell-based
T2 sequence (whole entry): T1 sequence (Q8TDV5 whole entry)

Chain of Dipeptidyl peptidase 8/9 (Homo sapiens) (Q6V1X1 whole entry, looked up, the tested form may be a part): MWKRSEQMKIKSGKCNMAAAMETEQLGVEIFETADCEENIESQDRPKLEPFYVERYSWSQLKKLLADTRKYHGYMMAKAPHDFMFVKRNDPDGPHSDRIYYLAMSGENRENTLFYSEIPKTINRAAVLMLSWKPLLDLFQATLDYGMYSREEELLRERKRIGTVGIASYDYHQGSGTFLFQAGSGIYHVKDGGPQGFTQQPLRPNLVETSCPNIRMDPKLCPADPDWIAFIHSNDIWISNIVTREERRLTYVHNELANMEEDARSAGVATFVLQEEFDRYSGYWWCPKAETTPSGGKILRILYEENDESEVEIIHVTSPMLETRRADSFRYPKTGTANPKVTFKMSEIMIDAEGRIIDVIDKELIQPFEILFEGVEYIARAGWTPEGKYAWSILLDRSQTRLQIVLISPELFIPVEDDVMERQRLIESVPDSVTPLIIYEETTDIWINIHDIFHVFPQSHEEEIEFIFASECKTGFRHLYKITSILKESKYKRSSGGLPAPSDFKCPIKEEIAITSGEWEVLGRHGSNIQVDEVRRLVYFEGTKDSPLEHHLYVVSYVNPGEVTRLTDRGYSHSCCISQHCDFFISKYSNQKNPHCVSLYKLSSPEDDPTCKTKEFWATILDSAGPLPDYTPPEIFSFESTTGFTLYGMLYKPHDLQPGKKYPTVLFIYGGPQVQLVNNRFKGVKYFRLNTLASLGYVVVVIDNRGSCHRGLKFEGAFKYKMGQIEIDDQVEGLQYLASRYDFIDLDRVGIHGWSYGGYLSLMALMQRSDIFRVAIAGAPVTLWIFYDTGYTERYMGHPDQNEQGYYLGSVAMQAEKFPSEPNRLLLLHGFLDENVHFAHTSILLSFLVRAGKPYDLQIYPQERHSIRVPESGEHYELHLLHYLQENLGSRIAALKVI
Chain of Dipeptidyl peptidase 8/9 (Homo sapiens) (Q86TI2 whole entry, looked up, the tested form may be a part): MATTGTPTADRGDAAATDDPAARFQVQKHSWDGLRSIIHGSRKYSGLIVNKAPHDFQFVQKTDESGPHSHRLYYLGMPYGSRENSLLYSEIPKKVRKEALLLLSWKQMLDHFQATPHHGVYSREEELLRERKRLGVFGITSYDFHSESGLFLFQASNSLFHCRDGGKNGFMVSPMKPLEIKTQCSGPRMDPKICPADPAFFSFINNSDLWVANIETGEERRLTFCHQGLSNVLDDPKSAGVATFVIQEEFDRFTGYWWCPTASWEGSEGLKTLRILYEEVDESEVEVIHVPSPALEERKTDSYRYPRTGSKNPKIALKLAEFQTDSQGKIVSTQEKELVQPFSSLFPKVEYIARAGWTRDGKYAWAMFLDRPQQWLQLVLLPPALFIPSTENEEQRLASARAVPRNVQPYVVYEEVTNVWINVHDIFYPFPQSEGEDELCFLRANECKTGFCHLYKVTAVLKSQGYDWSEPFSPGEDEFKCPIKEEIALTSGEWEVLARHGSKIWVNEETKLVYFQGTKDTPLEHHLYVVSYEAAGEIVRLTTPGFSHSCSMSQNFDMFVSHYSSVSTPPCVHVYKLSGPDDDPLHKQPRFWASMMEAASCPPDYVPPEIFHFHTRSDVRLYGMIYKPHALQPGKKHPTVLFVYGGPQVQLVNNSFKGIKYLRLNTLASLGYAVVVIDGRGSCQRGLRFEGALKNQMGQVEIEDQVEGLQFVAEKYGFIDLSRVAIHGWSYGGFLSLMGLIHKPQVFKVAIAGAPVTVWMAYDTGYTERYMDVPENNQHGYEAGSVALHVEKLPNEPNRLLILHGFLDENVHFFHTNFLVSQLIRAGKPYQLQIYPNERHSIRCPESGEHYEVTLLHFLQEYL

inhibition [1]	EC50 [2]	Stability [3]	Activity [4]	SMILES
36.8%	950 nM	Stable	81.5%	CC#CCn1c(N2CCC[C@@H](N)C2)nc2c1c(=O)n(CCCN1CCC(C(=O)Nc3ccccc3)CC1)c(=O)n2C
–	–	–	16.2%	CC#CCn1c(N2CCC[C@@H](N)C2)nc2c1c(=O)n(CCCN1CCC(C(=O)Nc3ccc(F)cc3)CC1)c(=O)n2C
–	–	–	18.9%	CC#CCn1c(N2CCC[C@@H](N)C2)nc2c1c(=O)n(CCCN1CCC(C(=O)Nc3ccc(Cl)cc3)CC1)c(=O)n2C
–	–	–	68.8%	CC#CCn1c(N2CCC[C@@H](N)C2)nc2c1c(=O)n(CCCN1CCC(C(=O)Nc3ccc(C#N)cc3)CC1)c(=O)n2C
10.5%	–	–	69.8%	CC#CCn1c(N2CCC[C@@H](N)C2)nc2c1c(=O)n(CCC1CCN(C(=O)OC(C)C)CC1)c(=O)n2C
–	–	–	42.7%	CC#CCn1c(N2CCC[C@@H](N)C2)nc2c1c(=O)n(CCCN1CCC(C(=O)OC3CCCC3)CC1)c(=O)n2C
–	–	–	9.8%	CC#CCn1c(N2CCC[C@@H](N)C2)nc2c1c(=O)n(CCCCN1CCC(C(=O)OC(C)C)CC1)c(=O)n2C
–	–	–	31.9%	CC#CCn1c(N2CCC[C@@H](N)C2)nc2c1c(=O)n(CCCN1CCC(C(=O)OCCC)CC1)c(=O)n2C
12.5%	–	–	51.4%	CC#CCn1c(N2CCC[C@@H](N)C2)nc2c1c(=O)n(CCCN1CCC(C(=O)OCC)CC1)c(=O)n2C
26.3%	–	–	70.7%	CC#CCn1c(N2CCC[C@@H](N)C2)nc2c1c(=O)n(CCCN1CCC(C(=O)Oc3ccccc3)CC1)c(=O)n2C
16%	–	–	60.4%	CC#CCn1c(N2CCC[C@@H](N)C2)nc2c1c(=O)n(CCCN1CCC(C(=O)OC(C)C)CC1)c(=O)n2C
–	–	–	14.5%	CC#CCn1c(N2CCC(N)CC2)nc2c1c(=O)n(CCCN1CCC(C(=O)OC(C)C)CC1)c(=O)n2C
36.8%	–	–	66.1%	CC#CCn1c(N2CCC[C@@H](N)C2)nc2c1c(=O)n(CCCC1CCN(C(=O)OC(C)C)CC1)c(=O)n2C
–	–	–	54.2%	CC#CCn1c(N2CCC[C@@H](N)C2)nc2c1c(=O)n(CCN1CCC(C(=O)OC(C)C)CC1)c(=O)n2C
–	–	–	36.5%	CC#CCn1c(N2CC(N)C2)nc2c1c(=O)n(CCCN1CCC(C(=O)OC(C)C)CC1)c(=O)n2C
21.1%	–	–	74.5%	CC#CCn1c(N2CCC[C@@H](N)C2)nc2c1c(=O)n(CCCN1CCC(C(=O)OC)CC1)c(=O)n2C
–	–	–	63.9%	CC#CCn1c(N2CC[C@@H](N)C2)nc2c1c(=O)n(CCCN1CCC(C(=O)OC(C)C)CC1)c(=O)n2C
22.5%	–	–	69.6%	CC#CCn1c(N2CCCNCC2)nc2c1c(=O)n(CCCN1CCC(C(=O)OC(C)C)CC1)c(=O)n2C
–	–	–	54.8%	CC#CCn1c(N2CCC[C@@H](N)C2)nc2c1c(=O)n(CCCN1CCC(C(=O)OC3CCC3)CC1)c(=O)n2C
–	–	–	29.9%	CC#CCn1c(N2CCC[C@@H](N)C2)nc2c1c(=O)n(CCCN1CCC(C(=O)OC3CCCCC3)CC1)c(=O)n2C
0%	1900 nM	–	79.3%	CC#CCn1c(N2CCC[C@@H](N)C2)nc2c1c(=O)n(CC1CCN(C(=O)OC(C)C)CC1)c(=O)n2C
–	–	–	44.4%	CC#CCn1c(N2CCC[C@@H](N)C2)nc2c1c(=O)n(CCCN1CCC(C(=O)Nc3ccc(OC)cc3)CC1)c(=O)n2C
31.6%	–	–	61.8%	CC#CCn1c(N2CCC[C@@H](N)C2)nc2c1c(=O)n(CCCCC1CCN(C(=O)OC(C)C)CC1)c(=O)n2C
–	–	–	27.9%	CC#CCn1c(N2CCC[C@@H](N)C2)nc2c1c(=O)n(CCCN1CCC(C(=O)Nc3ccc(Br)cc3)CC1)c(=O)n2C
–	–	–	26.2%	CC#CCn1c(N2CCC[C@@H](N)C2)nc2c1c(=O)n(CCCN1CCC(C(=O)Nc3ccc(C)cc3)CC1)c(=O)n2C
38.1%	–	–	61.3%	CC#CCn1c(N2CCC[C@@H](N)C2)nc2c1c(=O)n(CCCN1CCC(C(=O)N(C)C)CC1)c(=O)n2C
–	700 nM	–	–	CC(C)c1noc(C2CCN(c3ncnc(Nc4ccc(S(C)(=O)=O)cc4F)c3[N+](=O)[O-])CC2)n1
